Measured values taken from patent US9290792B2, “Method for measuring calcineurin activity” (UNIVERSITE PARIS DESCARTES, priority 2012, dated 2016).

Tests used:
[1] = test system: kinases present in the cellular extracts (PBMC); assay: Calcineurin kinetic experiments in PBMC cytosolic proteins in the presence or absence of kinase inhibitors (LC-MS/MS of DP-RII peptide); assay type: biochemical, human; details: 5 μg PBMC cytosolic proteins from healthy volunteers, FIG. 1; for production of DP-RII peptide vs control: 37° C., up to 120 min, 500 nM okadaic acid, ANOVA test
Procedure: FIG. 1: Calcineurin kinetic experiments were performed in the presence or absence of two different kinase inhibitors. The production of DP-RII peptide was quantified using LC-MS/MS analysis.
PBMCs obtained from either healthy volunteers or transplant patients were resuspended in a buffer containing 50 mM Tris, pH=7.0, 0.1 mM EGTA, 0.05 mM dithiothreitol, 0.1% tween 20, 0.3 mg/mL albumin, 1 mM MnCl2, 1 mM CaCl2 and protease inhibitors. These cellular extracts were sonicated on ice, and centrifuged for 30 minutes at 10.000 g at 4° C. The supernatants corresponding primarily to the cytosolic fractions were recovered and their protein content was determined. These cellular extracts can be stored at −80° C. for later measurement of CN activity.
One to 5 μg of proteins obtained from PBMC, prepared as described above, were used for measuring calcineurin activity in a reaction mixture containing 500 nM okadaic acid, 1 mg/L internal standard, 20 μM H89, 8 mg/L phosphorylated RII peptide and 0.03 units calmodulin in 15 μL 50 mM Tris-HCl, pH=7.0. Enzymatic reaction was carried out at 37° C. for 30 min and then, the reaction tubes were cooled on ice and the enzymatic reaction was stopped by addition of 15 μL of a solution of 5% trichloroacetic acid. After centrifugation for 5 minutes at 12.000 g at 4° C., supernatants were transferred to […] into 1.5 mL glass autoinjector vials and kept at 4° C. in autosampler before injection. […]
The inventors assessed the kinetics of calcineurin in the presence or not of 2 different kinase inhibitors: H89, an unspecific inhibitor and Rp-adenosine 3′,5′-cyclic monophosphorothioate, a specific inhibitor of PKA.
A first set of experiments was performed using 5 μg of PBMC cytosolic proteins issued from healthy volunteers. […] The enzymatic reactions were stopped at the indicated time points (up to 120 min) and peptide amounts were quantified by LC-MS/MS.

[2] = target: protein phosphatase 2B (PP-2B); details: cited from earlier work
[3] = target: protein phosphatase 2A (PP-2A); details: cited from earlier work
[4] = target: protein phosphatase 1 (PP-1); details: cited from earlier work

| SMILES | production of DP-RII peptide vs control [1] | inhibition obtained vs that obtained with the PKA specific inhibitor ([1]; p=0.0163) | IC50 [2] [µM] | IC50 [3] [nM] | IC50 [4] [nM] |
| --- | --- | --- | --- | --- | --- |
| O=S(=O)(NCCNC/C=C/c1ccc(Br)cc1)c1cccc2cnccc12 [H89] | significantly higher | significantly higher |  |  |  |
| C=C1[C@@H](O)[C@@H]2O[C@]3(CC[C@H](/C=C/[C@@H](C)[C@@H]4CC(C)=C[C@@]5(O[C@H](C[C@@](C)(O)C(=O)O)CC[C@H]5O)O4)O3)CC[C@H]2O[C@@H]1[C@@H](O)C[C@H](C)[C@H]1O[C@@]2(CCCCO2)CC[C@H]1C [Okadaic acid, 9,10-Deepithio-9,10-didehydroacanthifolicin] |  |  | > 5 | 0.1 to 1 | 20 to 100 |
| Nc1ncnc2c1ncn2[C@@H]1O[C@@H]2COP(O)(=S)O[C@H]2[C@H]1O (stereo partly drawn) [PKA specific inhibitor, Rp-adenosine 3′,5′-cyclic monophosphorothioate] | significantly higher |  |  |  |  |
